Drawing on patent US8835472B2, “Compounds, pharmaceutical compositions and uses thereof” (Boehringer Ingelheim International GmbH, priority 2010, dated 2014), this text covers IC50 for 76 compounds.

Chain of human ACC2 (O00763 129-2458): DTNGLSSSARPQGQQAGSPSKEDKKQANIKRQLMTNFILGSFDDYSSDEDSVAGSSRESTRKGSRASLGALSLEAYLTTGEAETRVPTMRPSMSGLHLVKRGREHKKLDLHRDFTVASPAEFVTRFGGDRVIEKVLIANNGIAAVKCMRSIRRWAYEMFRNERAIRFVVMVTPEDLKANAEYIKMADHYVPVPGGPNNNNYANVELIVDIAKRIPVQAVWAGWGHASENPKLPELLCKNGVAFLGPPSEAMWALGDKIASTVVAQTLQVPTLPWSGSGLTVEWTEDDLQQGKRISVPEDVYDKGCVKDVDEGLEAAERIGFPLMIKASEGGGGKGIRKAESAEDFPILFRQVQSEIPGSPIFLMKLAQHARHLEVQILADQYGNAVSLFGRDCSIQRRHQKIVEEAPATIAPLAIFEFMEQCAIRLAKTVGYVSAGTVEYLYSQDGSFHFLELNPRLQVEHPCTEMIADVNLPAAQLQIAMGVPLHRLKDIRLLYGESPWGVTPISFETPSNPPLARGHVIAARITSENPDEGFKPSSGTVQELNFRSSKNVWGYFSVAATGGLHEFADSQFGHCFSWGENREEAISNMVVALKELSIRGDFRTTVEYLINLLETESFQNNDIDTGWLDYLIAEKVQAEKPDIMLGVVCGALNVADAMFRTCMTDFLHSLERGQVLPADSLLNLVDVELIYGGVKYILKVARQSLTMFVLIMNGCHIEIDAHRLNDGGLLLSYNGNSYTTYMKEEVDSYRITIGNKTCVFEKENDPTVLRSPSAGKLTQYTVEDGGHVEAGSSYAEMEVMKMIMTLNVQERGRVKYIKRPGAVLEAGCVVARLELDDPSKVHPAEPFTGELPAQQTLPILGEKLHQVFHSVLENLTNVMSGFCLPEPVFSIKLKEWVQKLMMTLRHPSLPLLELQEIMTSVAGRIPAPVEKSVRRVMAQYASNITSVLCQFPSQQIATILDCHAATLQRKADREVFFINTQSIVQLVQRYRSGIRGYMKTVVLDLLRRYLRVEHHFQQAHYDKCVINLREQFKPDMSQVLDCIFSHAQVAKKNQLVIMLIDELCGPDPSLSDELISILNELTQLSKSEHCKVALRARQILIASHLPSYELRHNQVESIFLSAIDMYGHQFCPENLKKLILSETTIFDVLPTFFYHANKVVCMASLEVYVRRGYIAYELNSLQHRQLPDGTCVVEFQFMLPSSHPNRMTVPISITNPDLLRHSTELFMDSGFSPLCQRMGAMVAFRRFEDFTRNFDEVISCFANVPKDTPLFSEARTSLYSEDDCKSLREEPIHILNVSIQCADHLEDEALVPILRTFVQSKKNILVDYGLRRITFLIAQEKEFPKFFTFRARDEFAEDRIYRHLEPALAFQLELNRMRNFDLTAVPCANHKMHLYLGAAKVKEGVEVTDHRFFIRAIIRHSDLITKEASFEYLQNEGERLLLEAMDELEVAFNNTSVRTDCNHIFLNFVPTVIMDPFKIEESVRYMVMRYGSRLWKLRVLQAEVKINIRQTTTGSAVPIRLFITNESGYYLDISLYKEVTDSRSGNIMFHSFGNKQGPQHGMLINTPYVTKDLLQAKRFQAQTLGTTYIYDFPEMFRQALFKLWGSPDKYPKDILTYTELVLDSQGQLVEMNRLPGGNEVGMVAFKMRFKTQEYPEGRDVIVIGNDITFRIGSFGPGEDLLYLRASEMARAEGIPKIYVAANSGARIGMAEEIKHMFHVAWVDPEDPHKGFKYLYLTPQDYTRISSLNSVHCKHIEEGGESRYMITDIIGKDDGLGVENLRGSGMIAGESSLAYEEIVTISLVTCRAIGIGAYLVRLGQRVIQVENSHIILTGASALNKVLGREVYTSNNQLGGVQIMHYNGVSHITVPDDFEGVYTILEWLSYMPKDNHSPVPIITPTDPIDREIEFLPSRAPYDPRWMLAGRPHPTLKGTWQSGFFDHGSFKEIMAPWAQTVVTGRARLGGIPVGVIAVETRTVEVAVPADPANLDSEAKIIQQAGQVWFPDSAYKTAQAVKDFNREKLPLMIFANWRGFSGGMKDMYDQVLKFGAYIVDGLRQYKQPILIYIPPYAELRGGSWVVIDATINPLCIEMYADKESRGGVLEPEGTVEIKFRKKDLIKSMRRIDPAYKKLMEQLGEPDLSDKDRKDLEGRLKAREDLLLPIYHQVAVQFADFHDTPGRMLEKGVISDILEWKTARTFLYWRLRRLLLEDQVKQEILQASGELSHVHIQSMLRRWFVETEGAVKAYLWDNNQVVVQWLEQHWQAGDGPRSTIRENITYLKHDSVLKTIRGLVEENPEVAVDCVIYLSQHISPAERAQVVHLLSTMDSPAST

The experiment addresses human ACC2 (Homo sapiens (Human), UniProt O00763). Nature of the experiment: ACC2 assay, spectrophotometric 384 well assay (NADH-linked, coupled lactate dehydrogenase/pyruvate kinase reaction). It counts as biochemical. The following applies: hACC2 construct lacking the 128 N-terminal amino acids; 25° C., 340 nm over 15 minutes. A digest of the protocol:
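N-terminally truncated human ACC2 (lacking 128 residues) expressed in insect cells; coupled PK/LDH read-out of ADP as NADH loss at 340 nm, 15 min, 25 °C. Tris pH 7.5 with citrate and KHCO3; 200 μM acetyl-CoA, 500 μM ATP, 1% DMSO.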
As for `COCCN(C)c1ncc(C#Cc2ccc(CC(C)NC(C)=O)cc2)cn1` (stereo not shown) [Example 13.1, N-(1-(4-((2-((2-Methoxyethyl)(methyl)amino)pyrimidin-5-yl)ethynyl)phenyl)propan-2-yl)acetamide], the IC50 was found to be 3.2 µM.

With `CCCNc1ncc(C#Cc2ccc(CC(C)NC(C)=O)cc2)cn1` (stereo not shown) [Example 13.2], the IC50 was determined as 0.21 µM. With `CCN(C)c1ncc(C#Cc2ccc(CC(C)NC(C)=O)cc2)cn1` (stereo not shown) [Example 13.3] the figure was 1 µM; with `CC(=O)NC(C)Cc1ccc(C#Cc2cnc(NC(C)C)nc2)cc1` (stereo not shown) [Example 13.4], 0.17 µM. As for `COC(=O)CNc1ncc(C#Cc2ccc(CC(C)NC(C)=O)cc2)cn1` (stereo not shown) [Example 13.5], the figure is 1.4 µM. With `CC(=O)NC(C)Cc1ccc(C#Cc2cnc(NCc3ccccc3)nc2)cc1` (stereo not shown) [Example 13.6] the figure was 0.1 µM. Take `CC(=O)NC(C)Cc1ccc(C#Cc2cnc(N3CCCCC3)nc2)cc1` (stereo not shown) [Example 13.7]: the IC50 amounted to 0.26 µM. As for `CC(=O)NC(C)Cc1ccc(C#Cc2cnc(NC3CCCC3)nc2)cc1` (stereo not shown) [Example 13.8], the figure is 0.22 µM. The compound `CC(=O)NC(C)Cc1ccc(C#Cc2cnc(NCC3CC3)nc2)cc1` (stereo not shown) [Example 13.10] registered an IC50 of 0.45 µM. As for `CC(=O)NC(C)Cc1ccc(C#Cc2cnc(NC(C)C(C)C)nc2)cc1` (stereo not shown) [Example 13.11], the figure is 0.23 µM. Turning to `CC(=O)NC(C)Cc1ccc(C#Cc2cnc(NC3CCC3)nc2)cc1` (stereo not shown) [Example 13.12], it took 0.11 µM to reach half-maximal inhibition (IC50).

Take `CCNc1ncc(C#Cc2ccc(CC(C)NC(C)=O)cc2)cn1` (stereo not shown) [Example 13.13]: half-maximal inhibition (IC50) required 0.23 µM. `COCC(C)Nc1ncc(C#Cc2ccc(CC(C)NC(C)=O)cc2)cn1` (stereo not shown) [Example 13.14] yielded an IC50 of 1.9 µM.

Regarding `CCCC(C)Nc1ncc(C#Cc2ccc(CC(C)NC(C)=O)cc2)cn1` (stereo not shown) [Example 13.15], half-maximal inhibition (IC50) required 0.16 µM.

`CC(=O)NC(C)Cc1ccc(C#Cc2cnc(N(C)C3CCCC3)nc2)cc1` (stereo not shown) [Example 13.16] came in with an IC50 of 0.19 µM. `CC(=O)NC(C)Cc1ccc(C#Cc2cnc(NCC3CCC3)nc2)cc1` (stereo not shown) [Example 13.17] gave an IC50 of 0.18 µM. With `CC(=O)NC(C)Cc1ccc(C#Cc2cnc(N3CC4CCCC4C3)nc2)cc1` (stereo not shown) [Example 13.18] the figure was 0.13 µM.

For the compound `CC(=O)NC(C)Cc1ccc(C#Cc2cnc(NC3CCOC3)nc2)cc1` (stereo not shown) [Example 13.19], the IC50 was 0.67 µM. With `CC(=O)NC(C)Cc1ccc(C#Cc2cnc(NCC(C)C)nc2)cc1` (stereo not shown) [Example 13.20] the figure was 0.26 µM; with `CCC(C)N(C)c1ncc(C#Cc2ccc(CC(C)NC(C)=O)cc2)cn1` (stereo not shown) [Example 13.21], 0.21 µM; with `CC(=O)NC(C)Cc1ccc(C#Cc2cnc(N3CCOCC3)nc2)cc1` (stereo not shown) [Example 13.22], 0.73 µM. With `CCN(CC)c1ncc(C#Cc2ccc(CC(C)NC(C)=O)cc2)cn1` (stereo not shown) [Example 13.23] the figure was 1.2 µM. As for `CC(C)Nc1ncc(C#Cc2ccc(CC(C)NC(=O)N(C)C)cc2)cn1` (stereo not shown) [Example 13.24], the figure is 0.2 µM; as for `CCC(C)Nc1ncc(C#Cc2ccc(CC(C)NC(=O)N(C)C)cc2)cn1` (stereo not shown) [Example 13.25], 0.22 µM; as for `CCNc1ncc(C#Cc2ccc(CC(C)NC(=O)N(C)C)cc2)cn1` (stereo not shown) [Example 13.26], 0.2 µM. Regarding `CC(Cc1ccc(C#Cc2cnc(NC3CCC3)nc2)cc1)NC(=O)N(C)C` (stereo not shown) [Example 13.27], the IC50 stood at 0.12 µM.

Take `COC(=O)NC(C)Cc1ccc(C#Cc2cnc(NCc3ccncc3)nc2)cc1` (stereo not shown) [Example 13.28]: the IC50 amounted to 3.4 µM. As for `COC(=O)NC(C)Cc1ccc(C#Cc2cnc(N3CCC4(CC4)C3)nc2)cc1` (stereo not shown) [Example 13.29], the figure is 0.61 µM; as for `COC(=O)NC(C)Cc1ccc(C#Cc2cnc(N3CC4CCCC4C3)nc2)cc1` (stereo not shown) [Example 13.30], 0.36 µM; as for `COC(=O)NC(C)Cc1ccc(C#Cc2cnc(NC3CCC3)nc2)cc1` (stereo not shown) [Example 13.31], 0.5 µM.

`COC(=O)NC(C)Cc1ccc(C#Cc2cnc(N3CCCCC3)nc2)cc1` (stereo not shown) [Example 13.32] registered an IC50 of 0.41 µM. As for `COC(=O)NC(C)Cc1ccc(C#Cc2cnc(NCc3cccnc3)nc2)cc1` (stereo not shown) [Example 13.33], the figure is 1.8 µM.

In the case of `COC(=O)NC(C)Cc1ccc(C#Cc2cnc(N3CCCC3)nc2)cc1` (stereo not shown) [Example 13.34], it took 4.7 µM to reach half-maximal inhibition (IC50). `COC(=O)NC(C)Cc1ccc(C#Cc2cnc(NC3CCCC3)nc2)cc1` (stereo not shown) [Example 13.35] gave a half-inhibitory concentration (IC50) of 0.29 µM. The compound `COC(=O)NC(C)Cc1ccc(C#Cc2cnc(NC3CC3)nc2)cc1` (stereo not shown) [Example 13.36] had an IC50 of 1.6 µM. As for `CC(Cc1ccc(C#Cc2cnc(NCc3ccncc3)nc2)cc1)NC(=O)C1CC1` (stereo not shown) [Example 13.37], the figure is 2.6 µM. `COC(=O)NC(C)Cc1ccc(C#Cc2cnc(NC(C)C)nc2)cc1` (stereo not shown) [Example 13.38]: half-maximal inhibition (IC50) required 0.69 µM. With `CCC(C)Nc1ncc(C#Cc2ccc(CC(C)NC(=O)OC)cc2)cn1` (stereo not shown) [Example 13.39], the IC50 came out at 0.64 µM. The compound `COC(=O)NC(C)Cc1ccc(C#Cc2cnc(N3CCC3)nc2)cc1` (stereo not shown) [Example 13.40] registered an IC50 of 2.2 µM. As for `CCNc1ncc(C#Cc2ccc(CC(C)NC(=O)OC)cc2)cn1` (stereo not shown) [Example 13.41], the figure is 2.4 µM. With `COC(=O)NC(C)Cc1ccc(C#Cc2cnc(NCCF)nc2)cc1` (stereo not shown) [Example 13.42] the figure was 4.5 µM; with `CC(Cc1ccc(C#Cc2cnc(N3CC4CCCC4C3)nc2)cc1)NC(=O)C1CC1` (stereo not shown) [Example 13.43], 0.58 µM; with `CC(Cc1ccc(C#Cc2cnc(NC3CCC3)nc2)cc1)NC(=O)C1CC1` (stereo not shown) [Example 13.44], 0.32 µM. Consider `CC(Cc1ccc(C#Cc2cnc(N3CCCCC3)nc2)cc1)NC(=O)C1CC1` (stereo not shown) [Example 13.45], for which inhibition was half-maximal at 0.91 µM (IC50).

Compound `CC(Cc1ccc(C#Cc2cnc(NCc3cccnc3)nc2)cc1)NC(=O)C1CC1` (stereo not shown) [Example 13.46] had an IC50 of 2.7 µM. As for `CC(Cc1ccc(C#Cc2cnc(NC3CCCC3)nc2)cc1)NC(=O)C1CC1` (stereo not shown) [Example 13.47], the half-maximal inhibitory concentration (IC50) stood at 0.6 µM. For the compound `CC(Cc1ccc(C#Cc2cnc(NC3CC3)nc2)cc1)NC(=O)C1CC1` (stereo not shown) [Example 13.48], the half-inhibitory concentration (IC50) was 1.3 µM. Regarding `CC(C)Nc1ncc(C#Cc2ccc(CC(C)NC(=O)C3CC3)cc2)cn1` (stereo not shown) [Example 13.49], the IC50 is 2.6 µM. As for `CCC(C)Nc1ncc(C#Cc2ccc(CC(C)NC(=O)C3CC3)cc2)cn1` (stereo not shown) [Example 13.50], the figure is 1.5 µM; as for `CC(Cc1ccc(C#Cc2cnc(N3CCC3)nc2)cc1)NC(=O)C1CC1` (stereo not shown) [Example 13.51], 2.2 µM. `CCNc1ncc(C#Cc2ccc(CC(C)NC(=O)C3CC3)cc2)cn1` (stereo not shown) [Example 13.52] yielded an IC50 of 5.2 µM. `CC(Cc1ccc(C#Cc2cnc(NCCF)nc2)cc1)NC(=O)C1CC1` (stereo not shown) [Example 13.53] came in with an IC50 of 5.2 µM. With `CC(Cc1ccc(C#Cc2cnc(NCc3ccccc3)nc2)cc1)NC(=O)C1CC1` (stereo not shown) [Example 13.54] the figure was 0.2 µM; with `CC(=O)NC(C)Cc1ccc(C#Cc2cnc(NCc3ccccc3C)nc2)cc1` (stereo not shown) [Example 13.55], 0.13 µM; with `CC(=O)NC(C)Cc1ccc(C#Cc2cnc(NCc3cccc(C)c3)nc2)cc1` (stereo not shown) [Example 13.56], 0.97 µM. In turn, `CC(=O)NC(C)Cc1ccc(C#Cc2cnc(N3CCC(C)(C)CC3)nc2)cc1` (stereo not shown) [Example 13.57] showed an IC50 of 0.22 µM. With `CC(=O)NC(C)Cc1ccc(C#Cc2cnc(N(C)C)nc2)cc1` (stereo not shown) [Example 13.58], 1.2 µM corresponded to half-maximal inhibition (IC50).

`CC(=O)NC(C)Cc1ccc(C#Cc2cnc(NCC(F)(F)F)nc2)cc1` (stereo not shown) [Example 13.59] returned an IC50 of 0.36 µM.

For `CNc1ncc(C#Cc2ccc(CC(C)NC(C)=O)cc2)cn1` (stereo not shown) [Example 13.60], half-maximal inhibition (IC50) required 0.25 µM.

On to `CC(=O)NC(C)Cc1ccc(C#Cc2cnc(NCc3cnn(C)c3)nc2)cc1` (stereo not shown) [Example 13.61], for which the IC50 worked out at 3.8 µM. As for `CC(=O)NC(C)Cc1ccc(C#Cc2cnc(N[C@H]3CCc4ccccc43)nc2)cc1` (stereo partly shown) [Example 13.62], the figure is 0.33 µM. As to `CC(=O)NC(C)Cc1ccc(C#Cc2cnc(N[C@@H]3CCc4ccccc43)nc2)cc1` (stereo partly shown) [Example 13.63], it took 0.2 µM to reach half-maximal inhibition (IC50).

`CC(=O)NC(C)Cc1ccc(C#Cc2cnc(N3Cc4ccccc4C3)nc2)cc1` (stereo not shown) [Example 13.64] displayed an IC50 of 0.8 µM. With `CC(=O)NC(C)Cc1ccc(C#Cc2cnc(NCCF)nc2)cc1` (stereo not shown) [Example 13.65] the figure was 1.6 µM; with `CC(=O)NC(C)Cc1ccc(C#Cc2cnc(NC(C)C3CC3)nc2)cc1` (stereo not shown) [Example 13.66], 0.15 µM; with `CC(=O)NC(C)Cc1ccc(C#Cc2cnc(NCC3CC3(C)C)nc2)cc1` (stereo not shown) [Example 13.67], 0.66 µM. `CC(=O)NC(C)Cc1ccc(C#Cc2cnc(N3CCC(C)(C)C3)nc2)cc1` (stereo not shown) [Example 13.68] showed an IC50 of 0.23 µM. For the compound `CC(=O)NC(C)Cc1ccc(C#Cc2cnc(NCc3csc(C)n3)nc2)cc1` (stereo not shown) [Example 13.69], the IC50 turned out to be 5 µM. `CC(=O)NC(C)Cc1ccc(C#Cc2cnc(NCc3ncccn3)nc2)cc1` (stereo not shown) [Example 13.70] yielded an IC50 of 6.8 µM. Take `CC(=O)NC(C)Cc1ccc(C#Cc2cnc(N3CCC4(CCC4)C3)nc2)cc1` (stereo not shown) [Example 13.71]: half-maximal inhibition (IC50) was put at 0.21 µM. As for `CC(=O)NC(C)Cc1ccc(C#Cc2cnc(N3CCC4(CC4)C3)nc2)cc1` (stereo not shown) [Example 13.72], the figure is 0.19 µM; as for `CC(=O)NC(C)Cc1ccc(C#Cc2cnc(N3CCC4(CCCC4)C3)nc2)cc1` (stereo not shown) [Example 13.73], 0.28 µM; as for `COC1(C)CCN(c2ncc(C#Cc3ccc(CC(C)NC(C)=O)cc3)cn2)CC1` (stereo not shown) [Example 13.74], 1.7 µM. On to `CC(=O)NC(C)Cc1ccc(C#Cc2cnc(NCCC(F)(F)F)nc2)cc1` (stereo not shown) [Example 13.75], for which it took 0.17 µM to reach half-maximal inhibition (IC50).

For `CC(=O)NC(C)Cc1ccc(C#Cc2cnc(NCC3CCCC3)nc2)cc1` (stereo not shown) [Example 13.76], half-maximal inhibition (IC50) required 0.6 µM. In turn, `CC(=O)NC(C)Cc1ccc(C#Cc2cnc(N3CCCC3)nc2)cc1` (stereo not shown) [Example 13.77] gave an IC50 of 0.22 µM.
